Source: patent publication US7288573B2, “Method of repelling insects” (priority 2001, dated 2007)

Columns and labels:
Type in all cases: in vivo
[1] = Observation on the investigator's skin after application (Example 6); details: applied at full strength (100%) to hand/arm
Culex spp. = test: Mosquito repellency of 2-undecanone versus DEET, treated cloth on forearm (Example 8); details: 5% and 20% in ethyl alcohol sprayed onto cloth; landings in 5 minutes
Procedure: 2-undecanone was dissolved in ethyl alcohol (v/v at 5% and 20%) and approximately 1 ml was sprayed onto cloth that was then wrapped around the investigator's forearm prior to insertion into a 59 cm×55 cm×59 cm mosquito cage containing approximately 100 Culex spp. adult mosquitoes. DEET was a formulated, commercial product (Cutter). The number of mosquito landings in 5 minutes was recorded as well as the overall behavior response of the mosquitoes. […] The most impressive evidence of this repellent effect was the observation that the mosquitoes immediately disperse away from the treated arm and actually stop flying, instead lining up on the wire screen of the cage.
The results are shown in FIG. 5 as a graph of repellency as a function of time for 0 hr, 3 hr and 6 hr post-application of the formulations (i) 21% DEET, (ii) 20% 2-undecanone (IBI-246) and (iii) 5% 2-undecanone (IBI-246), where repellency={[# mosquito landings in Control test/# mosquitoes present in Control)−(# mosquito landings in Experiment/# mosquitoes present in Experiment)] divided by (# mosquito landings in Control test/# mosquitoes present in Control)}×100.

Aedes taeniorhynchus = test: Mosquito repellency of undecanone, treated gauze glove in cage
Procedure: Forty milliliters of a 2.5 percent solution of undecanone in absolute ethanol was added to a gauze glove (20×15 centimeters) in a 250 milliliter beaker. After soaking for 1 minute, the glove was laid onto aluminum foil in a fume hood for 13 minutes and then suspended by one end from the sash of the fume hood for 3 minutes. The ethanol appeared to be completely evaporated after this treatment as determined by touch. […] The same treatment was used without undecanone as a control. After the same drying steps, no odor of ethanol could be detected by smell. The control glove was the same physical dimensions and made from the same batch of material as the treatment. […]
Approximately 100 adult male and female mosquitoes (Aedes taeniorhynchus) (exact sex ratio not determined) were placed in a 12×12×14.5 inch stainless steel screened cage. […]
The following data are the control responses when the tester's hand covered by the ethanol treated (dried) glove was placed into the mosquito cage (at room temperature) for 20 seconds at the times indicated: 0 minutes, 10 landings and 1 bite; 10 minutes, 9-12 landings and 1 bite; 20 minutes, approximately 13 landings and no bites; and 40 minutes, approximately 13 landings and no bites. […] However, only sustained landings of about 5 seconds were recorded as a positive response along with actual bites. […]

| SMILES | skin irritation on application [1] | concentrations with the strongest repellent effect (Culex spp.) | landings and bites (Aedes taeniorhynchus; glove soaked in 2.5 percent solution in ethanol, dried, hand in cage 20 seconds at 0 minutes to 4 hours and 40 minutes) | host seeking behavior (Aedes taeniorhynchus; glove soaked in 2.5 percent solution, first 3 to 4 hours) |
| --- | --- | --- | --- | --- |
| CCCCCCCCCCCC(C)=O [2-tridecanone] | mildly irritating | – | – | – |
| CCCCCCCCCC(C)=O [2-undecanone] | – | strongest effect at the 20% and 5% concentrations | No landings and no bites | no host seeking behavior |
